Experimental data published in ChEMBL document CHEMBL1124016, “Antihypertensive activity in a series of 1-piperazino-3-phenylindans with potent 5-HT2-antagonistic activity” (J Med Chem, 1988).
pIC50: −log10 of the molar value.

Tests used:
[1] = tested on: Rattus norvegicus; experiment: Percent reduction of blood pressure in spontaneously hypertensive rat after 10 min at intraperitoneal administration of 5 mg/kg; format: functional
[2] = target: Serotonin 2 (5-HT2) receptor (Rattus norvegicus, UniProt P30994+P08909+P14842); experiment: Inhibition of [3H]spiperone binding to 5-hydroxytryptamine 2 receptor from rat cortical membranes; format: cell membranes, Membrane
[3] = organism: Mus musculus; experiment: Inhibition of methyl phenidate induced stereotyped gnawing in mice; format: functional
[4] = target: T1, Adrenergic receptor alpha-1 (Rattus norvegicus, UniProt P15823+P23944+P43140); experiment: Inhibition of [3H]prazosin binding to alpha-1 adrenergic receptor from rat cortical membranes; format: cell membranes, Membrane
T1 sequence (P15823 whole entry): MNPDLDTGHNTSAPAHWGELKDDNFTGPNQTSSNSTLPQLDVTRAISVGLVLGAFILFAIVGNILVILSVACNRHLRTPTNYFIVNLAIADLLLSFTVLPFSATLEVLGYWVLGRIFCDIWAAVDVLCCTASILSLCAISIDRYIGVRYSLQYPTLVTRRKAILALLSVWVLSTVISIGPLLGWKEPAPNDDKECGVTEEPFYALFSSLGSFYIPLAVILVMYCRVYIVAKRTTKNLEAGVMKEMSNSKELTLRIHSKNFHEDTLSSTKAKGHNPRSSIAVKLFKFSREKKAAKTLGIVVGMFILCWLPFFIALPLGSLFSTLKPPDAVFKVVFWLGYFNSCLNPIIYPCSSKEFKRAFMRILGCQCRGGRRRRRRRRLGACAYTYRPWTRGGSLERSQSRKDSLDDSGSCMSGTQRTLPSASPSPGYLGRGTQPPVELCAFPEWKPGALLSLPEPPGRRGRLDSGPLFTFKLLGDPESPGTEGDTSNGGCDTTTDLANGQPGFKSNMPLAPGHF
T1 sequence (P23944 whole entry): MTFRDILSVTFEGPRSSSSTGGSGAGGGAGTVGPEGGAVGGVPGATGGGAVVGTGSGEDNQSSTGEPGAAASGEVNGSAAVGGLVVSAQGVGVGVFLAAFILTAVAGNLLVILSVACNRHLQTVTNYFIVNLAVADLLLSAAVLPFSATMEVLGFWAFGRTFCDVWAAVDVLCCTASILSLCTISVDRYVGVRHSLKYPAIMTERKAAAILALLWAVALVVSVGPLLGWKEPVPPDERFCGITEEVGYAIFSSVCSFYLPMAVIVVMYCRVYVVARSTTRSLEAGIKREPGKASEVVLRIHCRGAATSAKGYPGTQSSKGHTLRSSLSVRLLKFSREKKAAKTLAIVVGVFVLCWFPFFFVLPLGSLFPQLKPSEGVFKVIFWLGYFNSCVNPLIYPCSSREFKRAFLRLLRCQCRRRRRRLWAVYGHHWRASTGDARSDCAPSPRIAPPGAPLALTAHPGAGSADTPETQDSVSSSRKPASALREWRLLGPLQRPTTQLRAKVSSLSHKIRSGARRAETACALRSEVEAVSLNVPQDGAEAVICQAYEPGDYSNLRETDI
T1 sequence (P43140 whole entry): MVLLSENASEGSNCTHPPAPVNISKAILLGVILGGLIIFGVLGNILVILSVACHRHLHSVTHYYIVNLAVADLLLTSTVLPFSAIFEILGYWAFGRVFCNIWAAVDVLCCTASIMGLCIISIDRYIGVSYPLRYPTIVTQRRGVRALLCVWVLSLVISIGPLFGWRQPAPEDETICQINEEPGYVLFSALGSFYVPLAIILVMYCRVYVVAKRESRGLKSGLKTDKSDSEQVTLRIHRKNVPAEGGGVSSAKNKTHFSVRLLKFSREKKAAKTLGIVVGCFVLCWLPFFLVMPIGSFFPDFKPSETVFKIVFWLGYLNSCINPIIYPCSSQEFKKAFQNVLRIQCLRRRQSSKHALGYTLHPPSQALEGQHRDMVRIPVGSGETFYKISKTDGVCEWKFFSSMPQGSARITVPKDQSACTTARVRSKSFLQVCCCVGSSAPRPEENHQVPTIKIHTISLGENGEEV

[5] = target: D(2) dopamine receptor (Rattus norvegicus, UniProt P61169); experiment: Inhibition of [3H]spiperone binding to Dopamine receptor D2 from rat striatal membranes; format: cell membranes, Membrane
Sequence of D(2) dopamine receptor (P61169 whole entry): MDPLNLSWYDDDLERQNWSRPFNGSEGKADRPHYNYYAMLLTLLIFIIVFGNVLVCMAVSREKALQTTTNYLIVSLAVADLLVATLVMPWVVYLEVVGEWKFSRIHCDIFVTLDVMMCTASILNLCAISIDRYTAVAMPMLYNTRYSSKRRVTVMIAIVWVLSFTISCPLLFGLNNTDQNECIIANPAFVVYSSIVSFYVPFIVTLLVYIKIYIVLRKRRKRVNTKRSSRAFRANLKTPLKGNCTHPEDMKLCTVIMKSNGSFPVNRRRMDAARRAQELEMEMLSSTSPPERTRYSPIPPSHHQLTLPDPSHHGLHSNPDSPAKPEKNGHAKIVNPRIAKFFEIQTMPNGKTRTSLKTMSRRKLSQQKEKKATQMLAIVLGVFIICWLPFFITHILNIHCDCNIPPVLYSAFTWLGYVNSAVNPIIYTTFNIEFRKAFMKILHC

[6] = organism: Rattus norvegicus; experiment: Inhibition of L-5-HTP (L-5-hydroxytryptophan) induced head twitches in rat; format: functional
[7] = tested on: Rattus norvegicus; experiment: Inhibition of 5-HT induced pressor response in pithed rats, after intravenous administration of 0.02 mg/kg; format: functional
[8] = tested on: Rattus norvegicus; experiment: Inhibition of 5-HT induced pressor response in pithed rats, after intravenous administration, activity is expressed as ED50; format: functional
[9] = organism: Rattus norvegicus; experiment: Ratio of phenylephrine ED50/ 5-HT ED50; format: functional
[10] = tested on: Rattus norvegicus; experiment: Inhibition of phenylephrine induced pressor response in pithed rats (following i.v. administration of […]); format: functional; conditions: route intravenous
[11] = tested on: Rattus norvegicus; experiment: Inhibition of 5-HT induced pressor response in pithed rats, after intravenous administration; format: functional
[12] = Rattus norvegicus, read-out: ED50

IC50 [2]	IC50 [4]	pIC50 [5]	SMILES	Reduction [1]	ED50 [3]	ED50 [6, 12]	Change [7]	ED50 [8]	Ratio [9]	Change [10]	ED50 [11]	ED50 [6]
0.013 µM	–	–	CN1CCN(CCN2CCN(C3CC(c4ccc(F)cc4)c4ccccc43)CC2)C1=O.Cl.Cl.O (stereo not given)	-6%	> 80 µmol/kg	–	–	–	–	–	–	–
0.044 µM	–	–	Cl.Cl.O.O=C1OCCN1CCN1CCN(C2CC(c3ccc(F)cc3)c3ccc(F)cc32)CC1 (stereo not given)	-20%	–	–	-27%	4.4 µmol/kg	5.2	19%	–	–
0.0048 µM	0.034 µM	7.60	CCN1CCN(CCN2CCN(C3CC(c4ccc(F)cc4)c4ccc(F)cc43)CC2)C1=O.Cl.Cl (stereo not given)	4%	> 75 µmol/kg	–	–	–	–	–	–	–
0.0094 µM	0.16 µM	7.60	Cl.Cl.Oc1nc2ccccc2n1CCN1CCN(C2CC(c3ccc(F)cc3)c3ccc(F)cc32)CC1 (stereo not given)	-15%	> 72 µmol/kg	–	–	–	–	–	–	–
0.022 µM	–	7.52	Cl.Cl.O=C1OCCN1CCCN1CCN(C2CC(c3ccc(F)cc3)c3ccc(F)cc32)CC1 (stereo not given)	-12%	–	–	-32%	–	–	–	–	–
–	–	–	O=C(O)/C=C\C(=O)O.O=C(O)/C=C\C(=O)O.O=C1NCCN1CCN1CCN([C@@H]2C[C@@H](c3ccccc3F)c3ccccc32)CC1	-3%	> 62 µmol/kg	17 µmol/kg	-18%	–	–	13%	–	–
0.037 µM	–	6.10	Cl.Cl.OC1=NCCN1CCN1CCN(C2CC(c3ccc(Cl)cc3)c3ccccc32)CC1 (stereo not given)	3%	> 80 µmol/kg	40 µmol/kg	13%	–	–	15%	–	–
–	–	–	O=C(O)/C=C\C(=O)O.O=C(O)/C=C\C(=O)O.O=C1NCCN1CCN1CCN([C@H]2C[C@H](c3ccccc3F)c3ccccc32)CC1	-8%	> 62 µmol/kg	> 31 µmol/kg	0%	–	–	3%	–	–
0.012 µM	0.036 µM	7.07	Cl.Cl.O=C1CCCN1CCN1CCN(C2CC(c3ccc(F)cc3)c3ccc(F)cc32)CC1 (stereo not given)	0%	–	–	–	–	–	–	–	–
–	–	–	O=C1NCCN1CCN1CCN([C@H]2C[C@H](c3ccccc3)c3ccccc32)CC1	-7%	–	–	-11%	–	–	0%	–	–
0.25 µM	1.4 µM	4.82	COc1ccc(C2CC(N3CCN(CCN4CCNC4=O)CC3)c3ccccc32)cc1 (stereo not given)	3%	> 95 µmol/kg	> 48 µmol/kg	-19%	–	–	69%	–	–
4.8 µM	–	< 6.00	O=C1NCCN1CCN1CCN(C(=O)c2ccccc2)CC1	6%	> 132 µmol/kg	> 8.2 µmol/kg	–	–	–	–	–	–
0.0077 µM	0.022 µM	–	CN1CCN(C2CC(c3ccc(F)cc3)c3ccc(F)cc32)CC1 (stereo not given)	-15%	11 µmol/kg	0.079 µmol/kg	-85%	–	–	-19%	–	–
0.064 µM	0.062 µM	6.17	OCCN1CCN(C2CC(c3ccc(F)cc3)c3ccccc32)CC1 (stereo not given)	-27%	> 118 µmol/kg	0.46 µmol/kg	-15%	3.4 µmol/kg	10	-12%	0.33 µmol/kg	–
0.0049 µM	–	–	Fc1ccc(C2CC(N3CCN(CCN4CCN=C4S)CC3)c3cc(F)ccc32)cc1 (stereo not given)	-10%	–	–	–	–	370	–	0.01 µmol/kg	–
58 µM	–	< 6.00	O=C1NCCN1CCN1CCN(C(=O)c2ccc(F)cc2)CC1	11%	> 125 µmol/kg	1.8 µmol/kg	–	–	–	–	–	–
> 1 µM	> 10 µM	< 6.00	O=C1NCCN1CCN1CCN(Cc2ccccc2)CC1	15%	> 139 µmol/kg	> 4.3 µmol/kg	–	–	–	–	–	–
0.03 µM	0.1 µM	5.72	Fc1ccc(C2CC(N3CCNCC3)c3ccccc32)cc1 (stereo not given)	10%	> 108 µmol/kg	2.5 µmol/kg	-13%	–	–	7%	–	–
–	0.015 µM	5.74	O=C(c1ccc(F)cc1)C1CCN(CCn2c(=O)[nH]c3ccccc3c2=O)CC1 [KETANSERIN]	-32%	> 101 µmol/kg	0.79 µmol/kg	-62%	3.2 µmol/kg	–	-14%	0.024 µmol/kg	–
–	–	–	COc1cc2nc(N3CCN(C(=O)c4ccco4)CC3)nc(N)c2cc1OC [PRAZOSIN]	-32%	> 95 µmol/kg	0.45 µmol/kg	0%	0.0095 µmol/kg	–	-100%	> 12 µmol/kg	–
–	0.047 µM	–	Cc1nc2sccn2c(=O)c1CCN1CCC(=C(c2ccc(F)cc2)c2ccc(F)cc2)CC1 [RITANSERIN]	10%	> 84 µmol/kg	1.2 µmol/kg	-95%	–	–	16%	–	–

SMILES	IC50 [2]	IC50 [4]	pIC50 [5]	Reduction [1]	ED50 [3]	ED50 [6, 12]	Change [7]	ED50 [8]	Ratio [9]	Change [10]	ED50 [11]	ED50 [6]
Fc1ccc([C@@H]2C[C@@H](N3CCN(CCN4CCN=C4S)CC3)c3cc(F)ccc32)cc1.O=C(O)/C=C\C(=O)O.O=C(O)/C=C\C(=O)O	0.0022 µM	0.013 µM	7.54	-32%	–	–	–	–	–	–	–	–
Fc1ccc(C2CC(N3CCN(CCN4CCN=C4S)CC3)c3ccccc32)cc1.O=C(O)/C=C\C(=O)O.O=C(O)/C=C\C(=O)O (stereo not given)	0.0033 µM	–	–	-18%	> 61 µmol/kg	0.43 µmol/kg	–	–	–	–	–	–
CN1CCN(CCN2CCN(C3CC(c4ccc(F)cc4)c4ccc(F)cc43)CC2)C1=O.Cl.Cl (stereo not given)	0.0033 µM	0.011 µM	6.59	-11%	> 78 µmol/kg	0.078 µmol/kg	–	13 µmol/kg	1300	–	0.01 µmol/kg	–
Fc1ccc(C2CC(N3CCN(CCN4CCCN=C4S)CC3)c3cc(F)ccc32)cc1.O=C(O)/C=C\C(=O)O.O=C(O)/C=C\C(=O)O (stereo not given)	0.0075 µM	–	7.29	-13%	23 µmol/kg	–	–	–	–	–	–	–
O=C(O)/C=C\C(=O)O.O=C(O)/C=C\C(=O)O.O=C1NCCCN1CCN1CCN(C2CC(c3ccc(F)cc3)c3ccc(F)cc32)CC1 (stereo not given)	0.011 µM	–	–	0%	> 59 µmol/kg	–	–	–	–	–	–	–
O=C(O)/C=C\C(=O)O.O=C(O)/C=C\C(=O)O.O=C1NCCN1CCN1CCN(C2CC(c3ccccc3)c3ccccc32)CC1 (stereo not given)	0.012 µM	–	5.72	–	> 64 µmol/kg	–	–	–	–	–	–	26 µmol/kg
CN1CCN(CCN2CCN([C@@H]3C[C@@H](c4ccc(F)cc4)c4ccc(F)cc43)CC2)C1=O	0.01 µM	0.011 µM	7.42	-32%	–	0.023 µmol/kg	–	2.2 µmol/kg	550	-29%	0.0043 µmol/kg	–
